Results from PMC2993883 (Journal of Neural Transmission, 2010).

What was measured:
Experiment in all cases: IMAP fluorescence polarization PDE assay, 8-point IC50
Type in all cases: biochemical
[1] = target: PDE-2A3 (Homo sapiens, UniProt O00408)
[2] = target: PDE-3A (Homo sapiens, UniProt Q14432)
[3] = target: PDE-10A1 (Homo sapiens, UniProt Q9Y233)
[4] = target: PDE-4A1 (Homo sapiens, UniProt P27815)
PDE-4A1, sequence (P27815 265-886 limits assumed): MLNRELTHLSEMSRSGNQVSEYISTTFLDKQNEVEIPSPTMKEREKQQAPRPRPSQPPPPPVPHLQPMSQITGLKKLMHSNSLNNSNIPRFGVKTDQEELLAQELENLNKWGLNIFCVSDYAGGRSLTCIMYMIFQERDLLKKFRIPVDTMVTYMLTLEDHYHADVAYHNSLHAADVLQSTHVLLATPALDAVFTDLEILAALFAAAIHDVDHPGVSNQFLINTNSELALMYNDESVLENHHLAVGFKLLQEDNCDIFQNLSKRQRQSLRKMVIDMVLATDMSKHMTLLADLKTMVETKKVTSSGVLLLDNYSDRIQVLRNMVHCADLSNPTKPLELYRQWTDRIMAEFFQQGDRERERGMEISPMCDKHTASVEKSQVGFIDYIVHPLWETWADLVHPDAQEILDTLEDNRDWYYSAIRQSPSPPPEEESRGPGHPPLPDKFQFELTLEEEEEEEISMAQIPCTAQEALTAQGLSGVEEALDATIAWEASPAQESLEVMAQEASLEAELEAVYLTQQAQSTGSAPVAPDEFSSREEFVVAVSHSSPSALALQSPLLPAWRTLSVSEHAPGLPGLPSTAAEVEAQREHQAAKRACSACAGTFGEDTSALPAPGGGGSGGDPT

PDE-3A, sequence (Q14432 whole entry): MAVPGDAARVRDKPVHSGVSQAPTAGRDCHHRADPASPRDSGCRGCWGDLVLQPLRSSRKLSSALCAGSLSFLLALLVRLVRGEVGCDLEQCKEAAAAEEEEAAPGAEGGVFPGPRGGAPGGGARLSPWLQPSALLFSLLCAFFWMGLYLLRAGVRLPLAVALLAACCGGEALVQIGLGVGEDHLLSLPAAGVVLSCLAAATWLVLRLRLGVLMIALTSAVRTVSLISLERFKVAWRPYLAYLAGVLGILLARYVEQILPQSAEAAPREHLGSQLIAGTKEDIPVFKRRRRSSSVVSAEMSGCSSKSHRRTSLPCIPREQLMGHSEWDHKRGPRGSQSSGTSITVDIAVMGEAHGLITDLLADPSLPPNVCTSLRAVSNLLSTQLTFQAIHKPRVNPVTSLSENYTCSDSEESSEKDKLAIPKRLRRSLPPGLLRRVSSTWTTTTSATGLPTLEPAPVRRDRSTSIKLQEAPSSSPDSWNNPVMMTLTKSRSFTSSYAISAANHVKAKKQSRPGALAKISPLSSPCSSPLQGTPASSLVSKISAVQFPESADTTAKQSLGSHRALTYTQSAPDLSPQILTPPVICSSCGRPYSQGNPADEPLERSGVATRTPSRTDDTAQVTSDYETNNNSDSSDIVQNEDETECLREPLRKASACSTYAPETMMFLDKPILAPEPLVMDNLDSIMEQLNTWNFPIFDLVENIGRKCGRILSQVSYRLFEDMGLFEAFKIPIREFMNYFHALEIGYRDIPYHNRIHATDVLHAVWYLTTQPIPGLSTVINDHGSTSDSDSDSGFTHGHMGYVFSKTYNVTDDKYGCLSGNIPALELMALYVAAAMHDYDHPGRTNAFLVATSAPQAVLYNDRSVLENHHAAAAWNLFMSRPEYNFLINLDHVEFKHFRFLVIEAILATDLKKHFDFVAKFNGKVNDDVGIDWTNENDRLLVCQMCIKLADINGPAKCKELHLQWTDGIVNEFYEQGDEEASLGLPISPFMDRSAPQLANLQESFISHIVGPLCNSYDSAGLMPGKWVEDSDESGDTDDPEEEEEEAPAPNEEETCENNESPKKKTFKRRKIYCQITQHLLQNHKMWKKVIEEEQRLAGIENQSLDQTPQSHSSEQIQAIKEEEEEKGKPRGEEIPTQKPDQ
PDE-10A1, sequence (Q9Y233 1-779 isoform Q9Y233-1): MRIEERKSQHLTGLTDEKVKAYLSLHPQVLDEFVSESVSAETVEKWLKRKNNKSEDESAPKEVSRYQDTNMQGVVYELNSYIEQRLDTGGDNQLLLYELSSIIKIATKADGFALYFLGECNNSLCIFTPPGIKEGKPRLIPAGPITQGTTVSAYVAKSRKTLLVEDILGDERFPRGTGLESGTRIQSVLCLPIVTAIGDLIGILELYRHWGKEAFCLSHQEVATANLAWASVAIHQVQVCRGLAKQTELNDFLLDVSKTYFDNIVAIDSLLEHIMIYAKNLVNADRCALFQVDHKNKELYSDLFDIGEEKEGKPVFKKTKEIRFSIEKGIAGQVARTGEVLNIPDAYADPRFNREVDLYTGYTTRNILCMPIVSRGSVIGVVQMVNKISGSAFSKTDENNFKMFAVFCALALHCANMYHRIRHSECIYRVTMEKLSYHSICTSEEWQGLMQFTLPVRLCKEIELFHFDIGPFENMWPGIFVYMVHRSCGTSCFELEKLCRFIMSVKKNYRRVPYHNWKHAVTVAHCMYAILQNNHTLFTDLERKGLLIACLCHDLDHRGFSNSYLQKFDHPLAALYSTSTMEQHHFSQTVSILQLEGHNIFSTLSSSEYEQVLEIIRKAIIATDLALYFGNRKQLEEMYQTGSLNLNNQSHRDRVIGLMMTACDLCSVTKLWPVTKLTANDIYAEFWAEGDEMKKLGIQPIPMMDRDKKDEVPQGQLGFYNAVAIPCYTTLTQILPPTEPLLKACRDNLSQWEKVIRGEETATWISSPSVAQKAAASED
PDE-2A3, sequence (O00408 2-941): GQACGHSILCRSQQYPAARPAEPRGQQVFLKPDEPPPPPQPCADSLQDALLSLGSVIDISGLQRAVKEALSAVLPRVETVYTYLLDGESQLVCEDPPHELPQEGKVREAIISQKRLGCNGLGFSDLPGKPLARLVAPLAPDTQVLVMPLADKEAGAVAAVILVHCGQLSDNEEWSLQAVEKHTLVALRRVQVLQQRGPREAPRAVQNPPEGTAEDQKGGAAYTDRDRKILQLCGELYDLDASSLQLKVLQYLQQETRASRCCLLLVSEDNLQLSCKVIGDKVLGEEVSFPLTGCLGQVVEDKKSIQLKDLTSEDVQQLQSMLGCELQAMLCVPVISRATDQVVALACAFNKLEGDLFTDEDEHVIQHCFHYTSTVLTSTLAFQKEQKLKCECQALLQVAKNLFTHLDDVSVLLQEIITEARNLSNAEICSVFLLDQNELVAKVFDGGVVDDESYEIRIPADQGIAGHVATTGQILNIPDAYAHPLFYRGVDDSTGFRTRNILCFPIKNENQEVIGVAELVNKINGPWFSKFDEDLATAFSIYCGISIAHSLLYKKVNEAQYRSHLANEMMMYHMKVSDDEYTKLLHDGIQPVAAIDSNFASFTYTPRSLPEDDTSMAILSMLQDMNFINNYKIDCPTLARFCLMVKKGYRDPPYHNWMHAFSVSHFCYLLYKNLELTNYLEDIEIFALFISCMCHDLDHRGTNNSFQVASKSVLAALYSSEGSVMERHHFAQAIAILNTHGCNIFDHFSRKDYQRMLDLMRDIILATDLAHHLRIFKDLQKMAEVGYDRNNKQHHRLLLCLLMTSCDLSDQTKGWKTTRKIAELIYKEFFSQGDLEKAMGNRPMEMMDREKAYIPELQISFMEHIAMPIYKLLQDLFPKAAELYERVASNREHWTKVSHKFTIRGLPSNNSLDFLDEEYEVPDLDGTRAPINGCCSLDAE

Work on `CCC1C(C)=NN=C(c2ccc(OC)c(OC)c2)c2cc(OC)c(OC)cc21` (racemic) [tofisopam, 1-(3,4-dimethoxyphenyl)-5-ethyl-7,8-dimethoxy-4-methyl-5H-2,3-benzodiazepine] yielded an IC50 [1] of 2.11 µM, an IC50 [2] of 1.98 µM and an IC50 [3] of 0.92 µM. The IC50 [4] was 0.42 µM.
